What was measured:
[1] = target: T1, CSNK1D (Homo sapiens, UniProt P48730); experiment: Kinase inhibition test (DNA-tagged kinase, affinity resin, qPCR readout); assay type: binding; design: key: (−) indicates no effect; (+) indicates weak inhibitory activity; (++) indicates a moderate level of inhibitory activity; (+++) indicates strong inhibitory activity; conditions: 1 μM of compound
T1 construct: made in house
In short: (§1)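 Competition binding: DNA-tagged kinases (phage/E. coli or HEK-293 produced) with immobilized biotinylated ligand and test compound in DMSO, 1 h at room temperature. After washing, bound kinase eluted with 0.5 μM non-biotinylated ligand and quantified by qPCR.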

[2] = target: T2, FLT3 (Homo sapiens, UniProt P36888); experiment: as above; assay type: binding; design: key: (−) indicates no effect; (+) indicates weak inhibitory activity; (++) indicates a moderate level of inhibitory activity; (+++) indicates strong inhibitory activity; conditions: 1 μM of compound
T2 construct: made in house
T2 sequence (P36888 27-993): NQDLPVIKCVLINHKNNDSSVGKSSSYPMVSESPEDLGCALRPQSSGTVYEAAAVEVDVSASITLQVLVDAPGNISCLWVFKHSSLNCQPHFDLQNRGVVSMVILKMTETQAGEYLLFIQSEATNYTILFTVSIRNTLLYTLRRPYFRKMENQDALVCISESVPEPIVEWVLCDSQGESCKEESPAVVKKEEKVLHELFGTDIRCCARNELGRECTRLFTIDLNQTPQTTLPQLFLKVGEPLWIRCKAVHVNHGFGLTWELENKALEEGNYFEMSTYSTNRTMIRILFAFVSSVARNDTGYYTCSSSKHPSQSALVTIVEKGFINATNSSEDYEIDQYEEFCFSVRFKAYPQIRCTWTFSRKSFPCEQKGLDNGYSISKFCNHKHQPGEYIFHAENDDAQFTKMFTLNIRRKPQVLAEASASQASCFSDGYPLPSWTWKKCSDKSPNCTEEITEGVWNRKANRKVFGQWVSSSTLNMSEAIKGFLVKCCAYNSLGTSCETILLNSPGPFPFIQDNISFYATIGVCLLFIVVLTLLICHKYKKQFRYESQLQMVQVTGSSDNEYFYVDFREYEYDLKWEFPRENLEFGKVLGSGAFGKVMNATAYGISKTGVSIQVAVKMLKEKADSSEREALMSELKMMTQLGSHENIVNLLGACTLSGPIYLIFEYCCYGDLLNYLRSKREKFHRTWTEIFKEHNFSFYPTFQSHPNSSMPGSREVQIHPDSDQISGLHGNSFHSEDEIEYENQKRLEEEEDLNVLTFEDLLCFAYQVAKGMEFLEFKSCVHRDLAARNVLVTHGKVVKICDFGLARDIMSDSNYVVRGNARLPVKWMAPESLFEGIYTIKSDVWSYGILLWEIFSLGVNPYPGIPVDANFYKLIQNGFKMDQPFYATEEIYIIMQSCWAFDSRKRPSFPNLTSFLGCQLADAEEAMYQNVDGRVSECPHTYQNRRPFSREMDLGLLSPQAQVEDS
In short: as §1

[3] = target: T3, DYRK1B (Homo sapiens, UniProt Q9Y463); experiment: as above; assay type: binding; design: key: (−) indicates no effect; (+) indicates weak inhibitory activity; (++) indicates a moderate level of inhibitory activity; (+++) indicates strong inhibitory activity; conditions: 1 μM of compound
T3 construct: made in house
In short: as §1

[4] = target: T4, DYRK1A (Homo sapiens, UniProt Q13627); experiment: as above; assay type: binding; design: key: (−) indicates no effect; (+) indicates weak inhibitory activity; (++) indicates a moderate level of inhibitory activity; (+++) indicates strong inhibitory activity; conditions: 1 μM of compound
T4 construct: made in house
In short: as §1

[5] = target: T5, NTRK1 (Homo sapiens, UniProt P04629); experiment: as above; assay type: binding; design: key: (−) indicates no effect; (+) indicates weak inhibitory activity; (++) indicates a moderate level of inhibitory activity; (+++) indicates strong inhibitory activity; conditions: 1 μM of compound
T5 construct: made in house
In short: as §1

[6] = test system: SK-Hep-1 (liver cancer cells); experiment: Inhibitory activity against cancer cells (sulforhodamine B staining); assay type: cell-based; conditions: 3 days, SRB staining
In short: (§2)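 Cells pre-incubated 1 day (day-0 reference), then exposed to test compound 3 days. Sulforhodamine B staining (0.4% SRB, 1% acetic acid), dye dissolved in 10 mM Tris pH 10.0, absorbance at 515 nm. Cell division % relative to day 0 and control; IC50 by non-linear regression.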

[7] = test system: PC-3 (prostate cancer cells); experiment: as above; assay type: cell-based; conditions: 3 days, SRB staining
In short: as §2

[8] = test system: MDA-MB-231 (breast cancer cells); experiment: as above; assay type: cell-based; conditions: 3 days, SRB staining
In short: as §2

[9] = test system: SNU638 (stomach cancer cells); experiment: as above; assay type: cell-based; conditions: 3 days, SRB staining
In short: as §2

[10] = test system: A549 (lung cancer cells); experiment: as above; assay type: cell-based; conditions: 3 days, SRB staining
In short: as §2

[11] = test system: HCT116 (colon cancer cells); experiment: as above; assay type: cell-based; conditions: 3 days, SRB staining
In short: as §2

T5 sequence (P04629 33-796): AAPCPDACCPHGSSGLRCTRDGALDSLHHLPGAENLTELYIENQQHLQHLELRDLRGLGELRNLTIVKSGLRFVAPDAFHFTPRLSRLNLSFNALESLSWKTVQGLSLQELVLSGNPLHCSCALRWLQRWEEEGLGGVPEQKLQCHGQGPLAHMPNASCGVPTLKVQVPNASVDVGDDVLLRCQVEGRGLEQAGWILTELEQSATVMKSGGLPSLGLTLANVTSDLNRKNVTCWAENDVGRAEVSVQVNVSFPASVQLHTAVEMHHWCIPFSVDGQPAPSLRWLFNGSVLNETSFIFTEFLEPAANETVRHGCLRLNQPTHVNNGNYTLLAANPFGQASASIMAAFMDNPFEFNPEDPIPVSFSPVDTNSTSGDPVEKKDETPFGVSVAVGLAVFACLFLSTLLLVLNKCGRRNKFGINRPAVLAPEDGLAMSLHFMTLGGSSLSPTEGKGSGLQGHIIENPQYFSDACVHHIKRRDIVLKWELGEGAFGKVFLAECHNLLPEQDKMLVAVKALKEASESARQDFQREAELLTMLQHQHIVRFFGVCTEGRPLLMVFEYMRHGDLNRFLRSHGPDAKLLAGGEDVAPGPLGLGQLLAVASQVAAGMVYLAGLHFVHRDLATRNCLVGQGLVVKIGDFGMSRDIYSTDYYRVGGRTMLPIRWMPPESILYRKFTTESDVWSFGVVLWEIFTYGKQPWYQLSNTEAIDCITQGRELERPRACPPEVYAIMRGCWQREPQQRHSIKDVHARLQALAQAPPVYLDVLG
T3 sequence (Q9Y463 whole entry): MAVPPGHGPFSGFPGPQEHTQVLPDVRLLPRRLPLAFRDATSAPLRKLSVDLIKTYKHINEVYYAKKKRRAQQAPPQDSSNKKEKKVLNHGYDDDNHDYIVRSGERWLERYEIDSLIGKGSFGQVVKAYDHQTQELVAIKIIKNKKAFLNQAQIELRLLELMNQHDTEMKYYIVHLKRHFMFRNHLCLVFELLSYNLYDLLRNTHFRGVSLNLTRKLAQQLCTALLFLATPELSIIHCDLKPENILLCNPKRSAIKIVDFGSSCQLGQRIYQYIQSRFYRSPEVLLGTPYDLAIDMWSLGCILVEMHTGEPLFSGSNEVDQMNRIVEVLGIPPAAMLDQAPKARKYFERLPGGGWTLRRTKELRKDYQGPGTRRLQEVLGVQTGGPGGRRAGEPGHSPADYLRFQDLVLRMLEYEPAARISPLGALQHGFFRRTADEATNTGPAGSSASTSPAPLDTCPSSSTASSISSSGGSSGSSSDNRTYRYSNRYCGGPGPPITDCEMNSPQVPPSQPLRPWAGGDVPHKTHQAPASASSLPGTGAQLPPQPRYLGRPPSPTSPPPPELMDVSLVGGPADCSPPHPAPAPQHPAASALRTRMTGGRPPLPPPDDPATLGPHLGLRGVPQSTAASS
T1 sequence (P48730 whole entry): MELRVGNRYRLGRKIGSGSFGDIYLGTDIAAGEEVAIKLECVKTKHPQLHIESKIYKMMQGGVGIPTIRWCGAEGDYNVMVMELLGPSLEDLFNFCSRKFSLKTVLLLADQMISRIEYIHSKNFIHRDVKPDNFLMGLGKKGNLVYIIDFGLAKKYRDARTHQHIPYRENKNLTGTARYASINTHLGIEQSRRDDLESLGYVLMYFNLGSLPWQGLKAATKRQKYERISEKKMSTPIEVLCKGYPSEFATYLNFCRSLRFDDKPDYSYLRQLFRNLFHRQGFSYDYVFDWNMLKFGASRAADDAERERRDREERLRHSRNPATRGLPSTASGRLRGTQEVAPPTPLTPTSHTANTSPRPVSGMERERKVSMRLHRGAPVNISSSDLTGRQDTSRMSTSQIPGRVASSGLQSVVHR

CSNK1D inhibitory activity [1] | FLT3 inhibitory activity [2] | DYRK1B inhibitory activity [3] | DYRK1A inhibitory activity [4] | NTRK1 inhibitory activity [5] | IC50 [6] | IC50 [7] | IC50 [8] | IC50 [9] | IC50 [10] | IC50 [11] | SMILES
++ | ++ | +++ | +++ | +++ | 21.2 µM | 29.1 µM | 32.4 µM | 23.3 µM | 28.6 µM | 26.3 µM | C#Cc1cn([C@@H]2S[C@H](CNC(=O)c3ccccc3)[C@@H](O)[C@H]2O)c2ncnc(N)c12 [Compound 8b]
+++ | +++ | ++ | +++ | +++ | 1.4 µM | 1.98 µM | 1.87 µM | 1.33 µM | 1.58 µM | 1.35 µM | C#Cc1cn([C@@H]2S[C@H](CN)[C@@H](O)[C@H]2O)c2ncnc(N)c12 [Compound 10a]

— patent US20240300991A1, “NUCLEOSIDE DERIVATIVE HAVING MULTI-TARGET KINASE INHIBITORY ACTIVITY AND PHARMACEUTICAL COMPOSITION FOR PREVENTING AND TREATING CANCER COMPRISING SAME” (FUTURE MEDICINE CO., LTD., priority 2021, published 2024)
